ChEMBL document CHEMBL1128201, “Selective and potent monoamine oxidase type B inhibitors: 2-substituted 5-aryltetrazole derivatives” (J Med Chem, 1995)

Columns and labels:
[1] = target: T1, Amine oxidase [flavin-containing] B (Rattus norvegicus, UniProt P19643); assay: In vitro inhibitory activity against rat brain Monoamine oxidase B
T1 sequence (P19643 whole entry): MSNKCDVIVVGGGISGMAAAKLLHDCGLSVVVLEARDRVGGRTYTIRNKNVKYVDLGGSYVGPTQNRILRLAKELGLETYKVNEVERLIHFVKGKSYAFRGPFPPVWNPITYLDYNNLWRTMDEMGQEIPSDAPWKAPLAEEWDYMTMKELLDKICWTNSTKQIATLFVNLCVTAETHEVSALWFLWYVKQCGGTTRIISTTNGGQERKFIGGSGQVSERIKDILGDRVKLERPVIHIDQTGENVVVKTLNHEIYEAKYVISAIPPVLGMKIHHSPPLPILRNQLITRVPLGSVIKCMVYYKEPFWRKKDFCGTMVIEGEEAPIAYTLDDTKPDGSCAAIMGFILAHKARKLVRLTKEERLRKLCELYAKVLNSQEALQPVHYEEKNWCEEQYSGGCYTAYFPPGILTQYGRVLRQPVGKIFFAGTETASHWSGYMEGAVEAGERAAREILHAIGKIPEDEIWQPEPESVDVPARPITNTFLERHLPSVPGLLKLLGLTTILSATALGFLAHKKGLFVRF

[2] = target: T2, Amine oxidase [flavin-containing] A (Rattus norvegicus, UniProt P21396); assay: In vitro inhibitory activity against rat brain Monoamine oxidase A
T2 sequence (P21396 whole entry): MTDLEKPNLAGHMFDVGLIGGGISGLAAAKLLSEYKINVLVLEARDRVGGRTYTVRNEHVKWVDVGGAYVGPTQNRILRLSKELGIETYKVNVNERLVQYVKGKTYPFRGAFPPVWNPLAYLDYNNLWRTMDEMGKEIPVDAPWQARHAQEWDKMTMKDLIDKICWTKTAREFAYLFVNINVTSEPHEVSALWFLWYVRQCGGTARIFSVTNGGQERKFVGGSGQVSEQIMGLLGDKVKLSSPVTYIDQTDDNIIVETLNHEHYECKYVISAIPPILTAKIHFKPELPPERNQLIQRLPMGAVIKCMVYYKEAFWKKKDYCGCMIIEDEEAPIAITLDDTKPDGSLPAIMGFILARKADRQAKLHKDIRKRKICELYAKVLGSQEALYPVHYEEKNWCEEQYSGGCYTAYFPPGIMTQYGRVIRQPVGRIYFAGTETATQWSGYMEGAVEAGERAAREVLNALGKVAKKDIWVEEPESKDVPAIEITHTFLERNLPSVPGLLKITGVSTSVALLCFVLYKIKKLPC

[3] = target: T1, Amine oxidase [flavin-containing] B; assay: (§1) Compound was evaluated for inhibitory activity against monoamine oxidase (MAO) type B by reversibility test before dialysis at a concentration of 0.1 uM; details: read-out: Control
[4] = target: T2, Amine oxidase [flavin-containing] A; assay: Ex vivo inhibitory activity against rat brain monoamine oxidase (MAO) type A at a dose of 5 mg/kg administered orally at 0.5 hr; assay type: functional, organism-based; set-up: dose 5 mg/kg, route oral; details: po
[5] = target: T1, Amine oxidase [flavin-containing] B; assay: Ex vivo inhibitory activity against rat brain monoamine oxidase (MAO) type B at a dose of 5 mg/kg administered orally at 0.5 hr; assay type: functional, organism-based; set-up: dose 5 mg/kg, route oral; details: po
[6] = target: T1, Amine oxidase [flavin-containing] B; assay: Compound was evaluated for inhibitory activity against monoamine oxidase (MAO) type B by reversibility test after dialysis at a concentration of 0.001 uM; details: read-out: Control
[7] = target: T2, Amine oxidase [flavin-containing] A; assay: (§2) Ex vivo inhibitory activity against rat brain monoamine oxidase (MAO) type A at a dose of 5 mg/kg administered orally at 1 hr; assay type: functional, organism-based; set-up: dose 5 mg/kg, route oral; details: po
[8] = target: T1, Amine oxidase [flavin-containing] B; assay: Ex vivo inhibitory activity against rat brain monoamine oxidase (MAO) type B at a dose of 5 mg/kg administered orally at 4 hr; assay type: functional, organism-based; set-up: dose 5 mg/kg, route oral; details: po
[9] = target: T1, Amine oxidase [flavin-containing] B; assay: (§3) Compound was evaluated for inhibitory activity against monoamine oxidase (MAO) type B by reversibility test after dialysis at a concentration of 0.1 uM; details: read-out: Control
[10] = target: T2, Amine oxidase [flavin-containing] A; assay: Ex vivo inhibitory activity against rat brain monoamine oxidase (MAO) type A at a dose of 5 mg/kg administered orally at 24 hr; assay type: functional, organism-based; set-up: dose 5 mg/kg, route oral; details: po
[11] = target: T1, Amine oxidase [flavin-containing] B; assay: Compound was evaluated for inhibitory activity against monoamine oxidase (MAO) type B by reversibility test before dialysis at a concentration of 0.001 uM; assay type: functional; details: read-out: Control
[12] = target: T1, Amine oxidase [flavin-containing] B; assay: (§4) Ex vivo inhibitory activity against rat brain monoamine oxidase (MAO) type B at a dose of 5 mg/kg administered orally at 1 hr; assay type: functional, organism-based; set-up: dose 5 mg/kg, route oral; details: po
[13] = Selectivity for the B form was estimated by the IC50(MAO A)/IC50(MAO B) ratio.
[14] = target: T2, Amine oxidase [flavin-containing] A; assay: Ex vivo inhibitory activity against rat brain monoamine oxidase (MAO) type A at a dose of 5 mg/kg administered orally at 4 hr; assay type: functional, organism-based; set-up: dose 5 mg/kg, route oral; details: po
[15] = target: T1, Amine oxidase [flavin-containing] B; assay: Ex vivo inhibitory activity against rat brain monoamine oxidase (MAO) type B at a dose of 5 mg/kg administered orally at 24 hr; assay type: functional, organism-based; set-up: dose 5 mg/kg, route oral; details: po
[16] = target: T1, Amine oxidase [flavin-containing] B; assay: as §1; assay type: functional; details: read-out: Control
[17] = target: T1, Amine oxidase [flavin-containing] B; assay: as §3; assay type: functional; details: read-out: Control
[18] = target: T1, Amine oxidase [flavin-containing] B; assay: Inhibitory activity against monoamine oxidase (MAO) type B by reversibility test before dialysis at a concentration of 0.001 uM; details: read-out: Control
[19] = target: T1, Amine oxidase [flavin-containing] B; assay: Inhibitory activity against monoamine oxidase (MAO) type B by reversibility test after dialysis at a concentration of 0.1 uM; details: read-out: Control
[20] = target: T1, Amine oxidase [flavin-containing] B; assay: Inhibitory activity against monoamine oxidase (MAO) type B by reversibility test before dialysis at a concentration of 0.1 uM; details: read-out: Control
[21] = target: T1, Amine oxidase [flavin-containing] B; assay: Inhibitory activity against monoamine oxidase (MAO) type B by reversibility test after dialysis at a concentration of 0.001 uM; details: read-out: Control
[22] = target: T1, Amine oxidase [flavin-containing] B; assay: as §4; details: po
[23] = target: T2, Amine oxidase [flavin-containing] A; assay: Ex vivo inhibitory activity against rat brain monoamine oxidase (MAO) type A at a dose of 5 mg/kg administered orally at 8 hr; assay type: functional, organism-based; set-up: dose 5 mg/kg, route oral; details: po
[24] = target: T2, Amine oxidase [flavin-containing] A; assay: as §2; assay type: organism-based; set-up: dose 5 mg/kg, route oral; details: po
[25] = target: T1, Amine oxidase [flavin-containing] B; assay: Compound was evaluated for the Inhibition of Monoamine oxidase B

COc1ccc(-c2nnn(CCC#N)n2)cc1
IC50 [1]: 37 µM
IC50 [2]: 16.6 µM

N#CCCn1nnc(-c2ccc(OCc3cccc(Cl)c3)cc2)n1
remaining activity at 0.1 µM [3]: 15%
inhibition at 5 mg/kg [4]: 13%
inhibition at 5 mg/kg [5]: 72%
remaining activity at 0.001 µM [6]: 95%
IC50 [1]: 0.1 µM
inhibition at 5 mg/kg [7]: 18%
inhibition at 5 mg/kg [8]: 63%
remaining activity at 0.1 µM [9]: 87%
inhibition at 5 mg/kg [10]: 1%
remaining activity at 0.001 µM [11]: 69%
inhibition at 5 mg/kg [12]: 81%
Selectivity [13]: > 1000
inhibition at 5 mg/kg [14]: 8%
inhibition at 5 mg/kg [15]: 9%
IC50 [2]: > 100 µM

N#CCCn1nnc(-c2ccc(OCc3ccccc3I)cc2)n1
IC50 [1]: > 270 µM
IC50 [2]: > 100 µM

Cc1ccc(COc2ccc(-c3nnn(CCO)n3)cc2)cc1
IC50 [2]: > 100 µM

COc1ccc(-c2nnn(CCO)n2)cc1
IC50 [1]: > 100 µM
IC50 [2]: 46 µM

N#CCCn1nnc(-c2ccc(OCc3ccccc3Cl)cc2)n1
IC50 [1]: 0.03 µM
IC50 [2]: > 100 µM

OCCn1nnc(-c2ccc(OCc3ccc(F)cc3)cc2)n1
IC50 [2]: > 100 µM

Cc1cccc(COc2ccc(-c3nnn(CCO)n3)cc2)c1
IC50 [2]: > 100 µM

N#CCCn1nnc(-c2ccc([N+](=O)[O-])cc2)n1
IC50 [1]: 13.4 µM
IC50 [2]: 18 µM

COc1cccc(COc2ccc(-c3nnn(CCO)n3)cc2)c1
IC50 [2]: 80 µM

OCCn1nnc(-c2ccc(OCc3ccccc3Cl)cc2)n1
IC50 [1]: 9 µM

OCCCCn1nnc(-c2ccc(-c3ccccc3)cc2)n1
IC50 [1]: 9.4 µM
IC50 [2]: 13 µM

OCCn1nnc(-c2ccc(OCc3ccccc3)cc2)n1
inhibition at 5 mg/kg [4]: 5%
inhibition at 5 mg/kg [5]: 84%
IC50 [1]: 0.03 µM
remaining activity at 0.1 µM [16]: 19%
inhibition at 5 mg/kg [7]: 4%
inhibition at 5 mg/kg [8]: 63%
inhibition at 5 mg/kg [12]: 84%
Selectivity [13]: 2100
inhibition at 5 mg/kg [14]: 4%
IC50 [2]: 64 µM
remaining activity at 0.1 µM [17]: 107%

COc1cccc(COc2ccc(-c3nnn(CCC#N)n3)cc2)c1
IC50 [2]: > 100 µM

N#CCCn1nnc(-c2ccc(OCc3ccc(Cl)cc3)cc2)n1
IC50 [1]: 0.08 µM
IC50 [2]: > 100 µM

N#CCCn1nnc(-c2ccc(OCc3ccccc3)cc2)n1
inhibition at 5 mg/kg [4]: 6%
inhibition at 5 mg/kg [5]: 76%
remaining activity at 0.001 µM [18]: 65%
IC50 [1]: 0.002 µM
remaining activity at 0.1 µM [19]: 54%
inhibition at 5 mg/kg [7]: 12%
inhibition at 5 mg/kg [8]: 69%
inhibition at 5 mg/kg [10]: 2%
inhibition at 5 mg/kg [12]: 74%
remaining activity at 0.1 µM [20]: 12%
remaining activity at 0.001 µM [21]: 85%
Selectivity [13]: 37000
inhibition at 5 mg/kg [14]: 0%
inhibition at 5 mg/kg [15]: 24%

C#CCN(C)[C@H](C)Cc1ccccc1 [SELEGILINE]
inhibition at 5 mg/kg [22]: 83%
inhibition at 5 mg/kg [23]: 5%
inhibition at 5 mg/kg [24]: 3%
inhibition at 5 mg/kg [10]: 2%
inhibition at 5 mg/kg [15]: 81%

Cc1ccccc1COc1ccc(-c2nnn(CCO)n2)cc1
Selectivity [13]: > 350
IC50 [2]: > 100 µM

N#CCCn1nnc(-c2ccccc2)n1
IC50 [1]: > 100 µM
IC50 [2]: 54 µM

OCCn1nnc(-c2ccc(OCc3ccccc3I)cc2)n1
IC50 [1]: 0.35 µM
IC50 [2]: > 100 µM

COc1ccc(COc2ccc(-c3nnn(CCC#N)n3)cc2)cc1
IC50 [2]: > 100 µM

Cc1cccc(COc2ccc(-c3nnn(CCC#N)n3)cc2)c1
IC50 [2]: > 100 µM

Cc1ccc(COc2ccc(-c3nnn(CCC#N)n3)cc2)cc1
IC50 [2]: > 100 µM

OCCn1nnc(-c2ccc(Cl)cc2)n1
IC50 [1]: 38 µM
IC50 [2]: 66 µM

N#CCCn1nc(-c2ccc(OCc3ccccc3)cc2)oc1=S
IC50 [25]: 0.0046 µM

N#CCCn1nc(-c2ccc(OCc3ccccc3)cc2)oc1=O
IC50 [25]: 0.0046 µM

COc1ccc(COc2ccc(-c3nnn(CCO)n3)cc2)cc1
IC50 [2]: > 100 µM

OCCn1nnc(-c2ccc(OCc3ccc(Cl)cc3)cc2)n1
IC50 [1]: 0.32 µM

N#CCCn1nnc(-c2ccc(OCc3ccc(F)cc3)cc2)n1
IC50 [2]: > 100 µM

N#CCCn1nnc(-c2ccc(-c3ccccc3)cc2)n1
IC50 [1]: 0.84 µM

COc1ccc2c3c([nH]c2c1)C(C)=NCC3 [HARMALINE]
IC50 [1]: 150 µM
Selectivity [13]: 5
IC50 [2]: 0.012 µM

N#CCCn1nnc(-c2ccncc2)n1
IC50 [1]: 30 µM
IC50 [2]: > 100 µM

OCCCn1nnc(-c2ccc(-c3ccccc3)cc2)n1
IC50 [1]: 1.36 µM
IC50 [2]: 4.6 µM

N#CCCn1nnc(-c2ccc(Cl)cc2)n1
IC50 [1]: 3.6 µM
IC50 [2]: 6.5 µM

O=[N+]([O-])c1ccc(-c2nnn(CCO)n2)cc1
IC50 [1]: > 100 µM
IC50 [2]: > 100 µM

N#CCCCCn1nnc(-c2ccc(-c3ccccc3)cc2)n1
IC50 [1]: 6 µM
IC50 [2]: 26 µM

OCCn1nnc(-c2ccc(OCc3cccc(Cl)c3)cc2)n1
inhibition at 5 mg/kg [4]: 15%
inhibition at 5 mg/kg [5]: 69%
IC50 [1]: 0.2 µM
remaining activity at 0.1 µM [16]: 25%
inhibition at 5 mg/kg [7]: 15%
inhibition at 5 mg/kg [8]: 55%
inhibition at 5 mg/kg [12]: 71%
Selectivity [13]: 290
inhibition at 5 mg/kg [14]: 14%
IC50 [2]: 58 µM
remaining activity at 0.1 µM [17]: 109%

Cc1ccccc1COc1ccc(-c2nnn(CCC#N)n2)cc1
IC50 [2]: > 100 µM

N#CCCCCCCn1nnc(-c2ccc(-c3ccccc3)cc2)n1
Selectivity [13]: 8.5

OCCn1nnc(-c2ccccc2)n1
IC50 [1]: 89 µM
IC50 [2]: > 100 µM

OCCn1nnc(-c2ccc(-c3ccccc3)cc2)n1
IC50 [1]: 0.96 µM
IC50 [2]: 11 µM

OCCn1nnc(-c2ccncc2)n1
IC50 [1]: > 100 µM
IC50 [2]: > 100 µM
